Values quoted from earlier work, collected in patent publication US20130281387A1, “Chemosensory Receptor Ligand-Based Therapies” (ELCELYX THERAPEUTICS, INC., priority 2010, published 2013).

Tests used:
bitter receptor = conditions: bitter phytonutrients in common plant foods
gut hormones = conditions: humans, after administration
GLP-1 = conditions: humans, after administration

For `C=CCC(=NOS(=O)(=O)O)S[C@@H]1O[C@H](CO)[C@@H](O)[C@H](O)[C@H]1O` (stereo in doubt) [Sinigrin], the Taste quality (bitter receptor) is given as “Bitter”.
In the case of `C[S+]([O-])CCCN=C=S` (stereo not shown) [3-Methyl-sulfinylpropyl isothiocyanate], the Taste quality (bitter receptor) is given as “Acrid mustard oils”.
For `C[S+]([O-])CCCCN=C=S` (stereo not shown) [4-Methylsulfinyl butyl isothiocyanate], the Taste quality (bitter receptor) is given as “Acrid mustard oils”.
For `C=CCN=C=S` [Allyl-isothiocyanate], the Taste quality (bitter receptor) is given as “Acrid mustard oils;”.
For `S=C=NCc1ccccc1` [Benzyl isothiocyanate], the Taste quality (bitter receptor) is given as “Acrid mustard oils;”.
For `O=c1c(-c2ccc(O)cc2)coc2cc(O[C@@H]3O[C@H](CO)[C@@H](O)[C@H](O)[C@H]3O)ccc12` [Daidzin], the Taste quality (bitter receptor) is given as “Astringent”.
In the case of `O=C(O[C@@H]1Cc2c(O)cc(O)cc2O[C@@H]1c1ccc(O)c(O)c1)c1cc(O)c(O)c(O)c1` [Epicatechin gallate], the Taste quality (bitter receptor) is listed as “Bitter and astringent”.
In the case of `O=C(O[C@@H]1Cc2c(O)cc(O)cc2O[C@@H]1c1cc(O)c(O)c(O)c1)c1cc(O)c(O)c(O)c1` [Epigallocatechin gallate], the Taste quality (bitter receptor) is listed as “Bitter with sweet”.
In the case of `Oc1cc(O)c2c(c1)O[C@H](c1cc(O)c(O)c(O)c1)[C@H](O)C2` [Epigallocatechin], the Taste quality (bitter receptor) is listed as “Bitter with sweet”.
For `O=c1c(-c2ccc(O)cc2)coc2cc(O)cc(O)c12` [Genistein], the Taste quality (bitter receptor) is given as “Bitter or astringent”.
For `O=c1c(-c2ccc(O)cc2)coc2cc(O[C@@H]3O[C@H](CO)[C@@H](O)[C@H](O)[C@H]3O)cc(O)c12` [Genistin], the Taste quality (bitter receptor) is listed as “Astringent”.
In the case of `O=S(=O)(O)ON=C(Cc1c[nH]c2ccccc12)S[C@@H]1O[C@H](CO)[C@@H](O)[C@H](O)[C@H]1O` [Glucobrassicin], the Taste quality (bitter receptor) is listed as “Bitter”.
For `C=CC1CNC(=S)O1` (stereo not shown) [Goitrin, Goitrin 5-vinyl-2-oxazolidine thione], the Taste quality (bitter receptor) is listed as “Bitter”.
For `CC1(C)O[C@H]2CC(=O)OC[C@]23[C@H]2CC[C@@](C)([C@@H](O[C@@H]4O[C@H](CO)[C@@H](O)[C@H](O)[C@H]4O)c4ccoc4)[C@@]4(O[C@@H]4C(=O)O)[C@]2(C)C(=O)C[C@@H]13` [Limonin glucoside], the Taste quality (bitter receptor) is listed as “Tasteless”.
In the case of `CC1(C)O[C@H]2CC(=O)OC[C@]23[C@H]2CC[C@@]4(C)[C@H](c5ccoc5)OC(=O)[C@H]5O[C@]54[C@]2(C)C(=O)C[C@@H]13` [Limonin], the Taste quality (bitter receptor) is listed as “Bitter”.
For `C[C@@H]1O[C@@H](O[C@H]2[C@H](Oc3cc(O)c4c(c3)O[C@H](c3ccc(O)cc3)CC4=O)O[C@H](CO)[C@@H](O)[C@@H]2O)[C@H](O)[C@H](O)[C@H]1O` [Naringin], the Taste quality (bitter receptor) is listed as “Bitter”.
For `COc1ccc(-c2cc(=O)c3c(OC)c(OC)c(OC)c(OC)c3o2)cc1OC` [Nobiletin], the Taste quality (bitter receptor) is given as “Bitter”.
In the case of `CC(=O)O[C@H]1CC(=O)OC(C)(C)[C@@H]2CC(=O)[C@]3(C)[C@H](CC[C@@]4(C)[C@H](c5ccoc5)OC(=O)[C@H]5O[C@]543)[C@@]12C` [Nomilin], the Taste quality (bitter receptor) is listed as “Bitter”.
For `C=C[C@H](O)CC(=NOS(=O)(=O)O)S[C@@H]1O[C@H](CO)[C@@H](O)[C@H](O)[C@H]1O` [Progoitrin], the Taste quality (bitter receptor) is given as “Bitter”.
For `O=c1c(O)c(-c2ccc(O)c(O)c2)oc2cc(O)cc(O)c12` [Quercetin], the Taste quality (bitter receptor) is given as “Bitter”.
For `C=C1C[C@@]23CC[C@H]4[C@@](C)(CCC[C@@]4(C)C(=O)O[C@@H]4O[C@H](CO)[C@@H](O)[C@H](O)[C@H]4O)[C@@H]2CC[C@]1(O[C@@H]1O[C@H](CO)[C@@H](O)[C@H](O[C@@H]2O[C@H](CO)[C@@H](O)[C@H](O)[C@H]2O)[C@H]1O[C@@H]1O[C@H](CO)[C@@H](O)[C@H](O)[C@H]1O)C3` [Rebaudioside A], the “gut hormones in the circulation” value (gut hormones) is listed as “no alterations”.
For `COc1ccc(-c2cc(=O)c3c(OC)c(OC)c(OC)cc3o2)cc1OC` [Sinensetin], the Taste quality (bitter receptor) is given as “Bitter”.
For `COc1ccc(-c2cc(=O)c3c(OC)c(OC)c(OC)c(OC)c3o2)cc1` [Tangeretin], the Taste quality (bitter receptor) is given as “Bitter”.
In the case of `O=c1c(-c2ccc(O)cc2)coc2cc(O)ccc12` [daidzein], the Taste quality (bitter receptor) is given as “Bitter or astringent”.
For `OCCN1C[C@H](O)[C@@H](O)[C@H](O)[C@H]1CO` [miglitol], the “post-prandial GLP-1 levels” value (GLP-1) is listed as “increase”.
